# Key:
# [1] = system: retinoic acid oxidation (cytochrome P450 systems); assay: Assay for NADPH Dependent Retinoic Acid Oxidation, liver microsomes; assay type: biochemical, rat; settings: for % Inhibition Retinoic Acid (100 μM): 100 μM compound; for % Inhibition Retinoic Acid (10 μM): 10 μM compound
# TGase I = assay: Transglutaminase (TGase I ELISA) assay in cultured keratinocytes; assay type: cell-based; settings: booster in combination with a constant retinol concentration of 10^−7M; read-out: Overall TG (IC 50)
# LRAT = target: T1, LRAT (Bos taurus, UniProt Q9BGL2); assay: Assay for LRAT activity, RPE microsomes; assay type: biochemical, bovine; settings: for % Inhibition LRAT (10 μm): 10 μm compound; for % Inhibition LRAT (100 μm): 100 μm compound
# T1 construct: followed by approximately 15 μg of RPE microsomal protein; tissue W. L. Lawson Co., Lincoln, Nebr; host or cells: bovine retinal pigment epithelium microsomes
# T1 sequence (Q9BGL2 1-230): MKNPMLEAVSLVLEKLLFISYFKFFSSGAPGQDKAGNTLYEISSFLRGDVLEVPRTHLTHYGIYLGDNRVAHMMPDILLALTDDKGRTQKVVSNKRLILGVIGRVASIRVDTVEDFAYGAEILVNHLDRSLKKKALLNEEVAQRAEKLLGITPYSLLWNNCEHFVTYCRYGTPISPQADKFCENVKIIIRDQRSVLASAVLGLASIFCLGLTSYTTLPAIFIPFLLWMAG
# ARAT = assay: Assay for ARAT activity, RPE microsomes; assay type: biochemical, bovine; settings: for % Inhibition ARAT (10 μm): 10 μm compound; for % Inhibition ARAT (100 μm): 100 μm compound
# CRABP-II = CRABP-II expression in adult fibroblasts (dot blot); assay type: cell-based, human; settings: for CRABP-II production: 48 hours; for % as Control: control as 100%
Molecule,% Inhibition LRAT (100 μm) (LRAT),% Inhibition ARAT (100 μm) (ARAT),also measured
"CC(C)(C(=O)c1cccnc1)c1cccnc1 [2-Methyl-1,2-di-3-Pyridyl-1-Propane]",,,% Inhibition Retinoic Acid (100 μM) [1]: 47%
"O=c1c2cccc3cccc(c32)c2nc3ccccc3n12 [(7H-Benzimidazo[2,1-a]Benz[de]-Isoquinolin-7-one]",,,IC50 (TGase I): 0.859 µM
CCCCCCCCCCCCC/C=C/[C@@H](O)[C@H](CO)NC(C)=O [Acetyl Sphingosine],50% +/− 18,62% +/− 11,% Inhibition LRAT (10 μm) (LRAT): 10% +/− 10; % Inhibition ARAT (10 μm) (ARAT): 19% +/− 12; IC50 (TGase I): 6.78 µM
C/C=C\C(=O)C1C(C)=CCCC1(C)C (stereo not drawn) [Alpha-Damascone],98% +/− 1,,% Inhibition LRAT (10 μm) (LRAT): 87% +/− 6; IC50 (TGase I): 335 µM
CCC(=O)/C=C/C1C(C)=CCCC1(C)C (stereo not drawn) [Alpha-Methyl Ionone],77%,67%,
C/C=C/C(=O)C1=C(C)CCCC1(C)C [Beta-Damascone],92%,,% Inhibition LRAT (10 μm) (LRAT): 52%
c1ccc(-c2ccc(C(c3ccccc3)n3ccnc3)cc2)cc1 (stereo not drawn) [Bifonazole],,,% Inhibition Retinoic Acid (10 μM) [1]: 89%; % Inhibition Retinoic Acid (100 μM) [1]: 100%
CC1=CCC(CCC(C)CO)C1(C)C (stereo not drawn) [Brahmanol],75%,70%,
CC(C)=CCCC(C)CCO (stereo not drawn) [Citronellol],,30%,
CC(C)(C)C(=O)C(Oc1ccc(Cl)cc1)n1ccnc1 (stereo not drawn) [Climbazole],,,% Inhibition Retinoic Acid (10 μM) [1]: 80%; % Inhibition Retinoic Acid (100 μM) [1]: 92%
Clc1ccccc1C(c1ccccc1)(c1ccccc1)n1ccnc1 [Clotrimazole],,,% Inhibition Retinoic Acid (10 μM) [1]: 76%
CC(/C=C/C=C(\C)C(=O)O)=C\C=C\C=C(C)\C=C\C=C(/C)C(=O)O [Crocetin],,34%,% Inhibition ARAT (10 μm) (ARAT): 15%
C/C=C/C(=O)C1=C(C)C=CCC1(C)C [Damascenone],79%,,% Inhibition LRAT (10 μm) (LRAT): 29%
C/C=C/C(=O)C1C(C)C=CCC1(C)C (stereo not drawn) [Delta-Damascone],95%,,% Inhibition LRAT (10 μm) (LRAT): 64%
CC(=O)CCC1C(C)=CCCC1(C)C (stereo not drawn) [Dihydro Alpha-Ionone],18%,13%,
CCCCCCCC(=O)OC[C@H](COP(=O)(O)OCCN)OC(=O)CCCCCCC [Dioctylphosphatidyl Ethanolamine],17% +/− 17,,% Inhibition LRAT (10 μm) (LRAT): 0%; % Inhibition ARAT (10 μm) (ARAT): 23%
Clc1ccc(COC(Cn2ccnc2)c2ccc(Cl)cc2Cl)cc1 (stereo not drawn) [Econazole],,,% Inhibition Retinoic Acid (10 μM) [1]: 88%; % Inhibition Retinoic Acid (100 μM) [1]: 100%
CCOC(=O)C1=C(C)C=CCC1(C)C [Ethyl Saffranate],49%,,
CC(C)=CCCC(C)=CCCC(C)=CCO [Farnesol],,53% +/− 18,% Inhibition ARAT (10 μm) (ARAT): 23% +/− 18

Molecule,% Inhibition LRAT (100 μm) (LRAT),% Inhibition ARAT (100 μm) (ARAT),also measured
CC12CCC(C1)C(C)(C)C2O (stereo not drawn) [Fenchyl Alcohol],,12%,
CC(=O)/C(C)=C/C1C(C)=CCCC1(C)C (stereo not drawn) [Gamma-Methyl Ionone],38%,,
CC(C)=CCC/C(C)=C/CC/C(C)=C/CC/C(C)=C/CO [Geranyl Geraniol],,81% +/− 6,% Inhibition ARAT (10 μm) (ARAT): 38% +/− 12
CCCCCC(N)=O [Hexanoamide],,20%,
CCCCCCCCCCCCC/C=C/[C@@H](O)[C@H](CO)NC(=O)CCCCC [Hexanoyl Sphingosine],37% +/− 9,,IC50 (TGase I): 99.9 µM
CCCCCCCCCCC(O)C(=O)NCCO (stereo not drawn) [Hydroxyethyl-2-Hydroxy-C12 Amide],35%,,IC50 (TGase I): 32.9 µM
CC1=CC(C)C(CO)C(C)C1 (stereo not drawn) [Isocyclogeraniol],16%,18%,
CC=CC(=O)C1CCC(C)(C)C=C1C (stereo not drawn) [Isodamascone],92%,80%,
CC(=O)N1CCN(c2ccc(OCC3COC(Cn4ccnc4)(c4ccc(Cl)cc4Cl)O3)cc2)CC1 (stereo not drawn) [Ketoconazole],,,% Inhibition Retinoic Acid (10 μM) [1]: 84%; % Inhibition Retinoic Acid (100 μM) [1]: 84%
CCCCCCCCCCCC1=NCCN1CCO [Lauryl Hydroxyethylimidazoline],,,IC50 (TGase I): 0.467 µM
"CCN(CC)CC(=O)Nc1c(C)cccc1C [Lidocaine, reference compound]",,12%,
CCCCC/C=C\C/C=C\CCCCCCCC(=O)NCCCN(C)C [Linoleamidopropyl Dimethylamine],,69% +/− 18,
CCCCC/C=C\C/C=C\CCCCCCCC(=O)NCCO [Linoleoyl Monoethanolamide],,,IC50 (TGase I): 16.1 µM
CC(C)(O)CCCC1=CCC(C=O)CC1 (stereo not drawn) [Lyral],,76%,
"CCCCC/C=C/C/C=C/CCCCCCCC(=O)NC(C)c1ccccc1 (stereo not drawn) [Melinamide, reference compound]",,64% +/− 15,
Clc1ccc(COC(Cn2ccnc2)c2ccc(Cl)cc2Cl)c(Cl)c1 (stereo not drawn) [Miconazole],,,% Inhibition Retinoic Acid (10 μM) [1]: 74%; % Inhibition Retinoic Acid (100 μM) [1]: 86%
CCCCCCCCCCCCCC(=O)N(C)CC(=O)O [Myristoyl Sarcosine],,41% +/− 14,
O=C1C[C@@H](c2ccc(O)cc2)Oc2cc(O)cc(O)c21 [Naringenin],,33%,
CCCCCCCC/C=C\CCCCCCCC[N+](C)(C)CC(=O)[O-] [Oleyl Betaine],,47%,IC50 (TGase I): 28 µM

Molecule,% Inhibition LRAT (100 μm) (LRAT),% Inhibition ARAT (100 μm) (ARAT),also measured
CCCCCCCC/C=C\CCCCCCCC1=NCCN1CCO [Oleyl Hydroxyethylimidazoline],,,IC50 (TGase I): 30.2 µM
CC(=O)/C=C/C=C(\C)CCC=C(C)C [Pseudoionone],37%,,
O=c1c(O)c(-c2ccc(O)c(O)c2)oc2cc(O)cc(O)c12 [Quercetin],,,% Inhibition Retinoic Acid (10 μM) [1]: 40%; % Inhibition Retinoic Acid (100 μM) [1]: 74%
"CC1=C(/C=C/C(C)=C/C=C/C(C)=C/C(=O)O)C(C)(C)CCC1 [Retinoic acid, reference compound]",,,CRABP-II production (CRABP-II; 1 nM retinoid alone): 0.97+/−0.47; % as Control (CRABP-II; 1 nM retinoid alone): 335+/−162%; CRABP-II production (CRABP-II; 10 nM retinoid alone): 1.24+/−0.29; % as Control (CRABP-II; 10 nM retinoid alone): 428+/−101%
CC(=O)OC/C=C(C)/C=C/C=C(C)/C=C/C1=C(C)CCCC1(C)C [Retinyl Acetate],,,CRABP-II production (CRABP-II; 100 nM retinoid alone): 0.60+/−0.32; % as Control (CRABP-II; 100 nM retinoid alone): 209+/−118%
CCCCC/C=C\C/C=C\CCCCCCCC(=O)OC/C=C(C)/C=C/C=C(C)/C=C/C1=C(C)CCCC1(C)C [Retinyl Linoleate],,,CRABP-II production (CRABP-II; 100 nM retinoid alone): 0.52+/−0.3; % as Control (CRABP-II; 100 nM retinoid alone): 181+/−110%
CCCCCCCCCCCCCCCC(=O)OC/C=C(C)/C=C/C=C(C)/C=C/C1=C(C)CCCC1(C)C [Retinyl Palmitate],,,CRABP-II production (CRABP-II; 100 nM retinoid alone): 1.26+/−0.51; % as Control (CRABP-II; 100 nM retinoid alone): 434+/−177%
CC(=O)C1(C)C2CC3C(C2)C31C (stereo not drawn) [Santalone],12%,23%,
CCCC(O)CCC1C(C)CCCC1(C)C (stereo not drawn) [Timberol],33%,,
CC(=O)c1cc2c(cc1C)C(C)(C)C(C)CC2(C)C (stereo not drawn) [Tonalid],,50%,
CC(=O)c1cc2c(cc1C)C(C)(C)[C@H](C)[C@H]2C(C)C [Traseolide],,41%,
Castor Oil MEA,,,IC50 (TGase I): 32.5 µM
Coco Hydroxyethylimidazoline,68%,,
Coco Trimethylammonium Cl-,,27%,
Cocoyl Monoethanolamide,34%,13%,
Glycerol-PCA-Oleate,58% +/− 2,41% +/− 6,
Hydroxyquinoline (Carbostyril),,,IC50 (TGase I): 364 µM
Isobutyl Ionone,45%,8%,
Santanol,43%,15%,

# Source: patent US20020143059A1, “Skin care product containing retinoids, retinoid booster and phytoestrogens in a dual compartment package” (priority 2000, published 2002)
